Test results as given in ChEMBL document CHEMBL1134119, “Total synthesis of human chymase inhibitor methyllinderone and structure--activity relationships of its derivatives” (Bioorg Med Chem Lett, 2001).

Key:
[1] = target: T1, Chymase (Homo sapiens, UniProt P23946); experiment: Compound was evaluated for its inhibitory activity against human Serine protease chymase
T1 sequence (P23946 whole entry): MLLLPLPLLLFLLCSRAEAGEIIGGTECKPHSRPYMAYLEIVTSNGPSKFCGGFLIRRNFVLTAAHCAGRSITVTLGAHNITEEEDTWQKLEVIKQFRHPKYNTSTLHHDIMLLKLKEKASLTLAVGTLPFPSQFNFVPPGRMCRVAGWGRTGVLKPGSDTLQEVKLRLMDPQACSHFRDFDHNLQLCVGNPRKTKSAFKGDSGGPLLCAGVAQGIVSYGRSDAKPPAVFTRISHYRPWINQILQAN

[2] = target: T1, Chymase; experiment: Compound was evaluated for its inhibitory activity against human chymase

| IC50 [1] | IC50 [2] | SMILES |
| --- | --- | --- |
| 40 µM |  | COC(CCc1ccccc1)=C1C(=O)C=CC1=O |
| 30 µM |  | COC(/C=C/c1ccccc1)=C1C(=O)C(OC)=C(OC)C1=O |
|  | > 1000 µM | COC(C)=C1C(=O)C=CC1=O |
